Data taken from patent US20250144067A1, “PERSONALIZED STARVATION THERAPY FOR CANCER” (Faeth Therapeutics, Inc., priority 2021, published 2025).
Counter-ions that a name gives are not always drawn.

Columns and labels:
[1] = system: NCI-H292 lung cancer cells; experiment: FDA drug screening, complete media vs cholesterol-free media with simvastatin (TABLE 2); type: cell-based, human; settings: for Cholesterol-free media + simvastatin (0.04 μM) / Complete Media: NCI-H292 cells
[2] = system: NCI-H292 lung cancer cells; experiment: FDA drug screening, complete media vs cholesterol-free media without statin (TABLE 1); type: cell-based, human
[3] = cholesterol-free media with simvastatin 0.04 μM, FDA drug library screen (TABLE 2)
[4] = complete media, FDA drug library screen (TABLE 2)
[5] = complete media minus cholesterol-free media + simvastatin (0.04 μM), […]
[6] = Complete minus Cholesterol-free, […]
[7] = NCI-H292 cells, cholesterol-free media without statin, FDA drug library screen
[8] = NCI-H292 cells, complete media, FDA drug library screen
[9] = FDA drug library screen, cholesterol-free media with simvastatin 0.04 μM
[10] = FDA drug library screen, complete media
[11] = complete vs cholesterol-free media, […]
[12] = complete media vs cholesterol-free media + simvastatin (0.04 μM), […]
[13] = NCI-H292 cells in cholesterol-free media without statin
[14] = NCI-H292 cells in complete media
[15] = FDA library drug in cholesterol-free media with simvastatin 0.04 μM
[16] = FDA library drug in complete media
[17] = complete media vs cholesterol-free media + simvastatin (0.04 μM), >0 enhanced anti-cancer activity, about 0 neutral, <0 antagonist
[18] = complete vs cholesterol-free media, >0 enhanced anti-cancer activity, about 0 neutral, <0 antagonist
[19] = complete media minus cholesterol-free media + simvastatin (0.04 μM), >0 enhanced anti-cancer activity, about 0 neutral, <0 antagonist
[20] = NCI-H292 cells, cholesterol-free media without statin
[21] = complete vs cholesterol-free media, greater than 0 enhanced anti-cancer activity, about 0 neutral, below 0 antagonists
[22] = cholesterol-free media with simvastatin 0.04 μM, cell growth value in FDA drug screen
[23] = complete media, cell growth value in FDA drug screen
[24] = complete media minus cholesterol-free media + simvastatin, >0 enhanced anti-cancer activity, about 0 neutral, <0 antagonist
[25] = drug in cholesterol-free media with simvastatin 0.04 μM
[26] = Complete minus Cholesterol-free, greater than 0 enhanced anti-cancer activity, about 0 neutral, below 0 antagonists
[27] = Complete minus Cholesterol-free, greater than 0 enhanced anti-cancer activity, about 0 neutral, below 0 antagonist
[28] = NCI-H292 cells, FDA drug library screen, cholesterol-free media without statin
[29] = NCI-H292 cells, FDA drug library screen, complete media

Molecule: COc1cc([C@@H]2c3cc4c(cc3[C@H](O)[C@H]3COC(=O)[C@H]23)OCO4)cc(OC)c1OC [Podofilox]
- Cholesterol-free media + simvastatin (0.04 μM) [1, 3]: 0.1667
- Complete Media [1, 4]: 0.1215
- Difference [1, 5]: −0.05
- Difference [2, 6]: −0.01
- Cholesterol-free [2, 7]: 0.05355
- Complete [2, 8]: 0.04847

Molecule: COS(=O)(=O)[O-].COc1cc(N)cn[n+]1-c1ccccc1 [Amezinium (methylsulfate)]
- Cholesterol-free media + simvastatin (0.04 μM) [1, 9]: 1.322
- Complete Media [1, 10]: 1.744
- Difference ([1]; complete media minus cholesterol-free media + simvastatin, […]): 0.42
- Cholesterol-free [2, 7]: 1.242
- Complete [2, 8]: 1.933
- Difference [2, 11]: 0.69

Molecule: Phillyrin
- Cholesterol-free media + simvastatin (0.04 μM) [1, 9]: 1.405
- Complete Media [1, 10]: 1.262
- Difference [1, 12]: −0.14
- Difference [2, 6]: −0.77
- Cholesterol-free [2, 13]: 1.584
- Complete [2, 14]: 0.8182

Molecule: O=C(CO)[C@@H](O)[C@H](O)[C@H](O)CO [Fructose]
- Cholesterol-free media + simvastatin (0.04 μM) [1, 15]: 2.032
- Complete Media [1, 16]: 1.165
- Difference [1, 17]: −0.87
- Cholesterol-free [2, 7]: 1.048
- Complete [2, 8]: 1.329
- Difference [2, 18]: 0.28

Molecule: CC1=CC(=O)c2ccccc2C1=O [Menadione]
- Cholesterol-free media + simvastatin (0.04 μM) [1, 3]: 1.102
- Complete Media [1, 4]: 1.055
- Difference [1, 19]: −0.05
- Cholesterol-free [2, 7]: 0.7683
- Complete [2, 8]: 1.342
- Difference [2, 18]: 0.57

Molecule: CC(C)NCC(O)COc1cccc2ccccc12 (stereo not shown) [Propranolol (hydrochloride)]
- Cholesterol-free media + simvastatin (0.04 μM) [1, 3]: 0.8722
- Complete Media [1, 4]: 0.8715
- Difference [1, 19]: 0.00
- Cholesterol-free [2, 20]: 1.016
- Complete ([2]; NCI-H292 cells, complete media): 0.5683
- Difference [2, 21]: −0.45

Molecule: O=C1CC2(CCCC2)CC(=O)N1CCCCN1CCN(c2ncccn2)CC1 [Buspirone (hydrochloride)]
- Cholesterol-free media + simvastatin (0.04 μM) [1, 22]: 0.8828
- Complete Media [1, 23]: 0.9935
- Difference [1, 24]: 0.11
- Cholesterol-free [2, 20]: 1.286
- Complete ([2]; NCI-H292 cells, complete media): 0.8529
- Difference [2, 21]: −0.43

Molecule: CC(C)(C)c1ccc(CN2CCN(C(c3ccccc3)c3ccc(Cl)cc3)CC2)cc1 (stereo not shown) [Buclizine (dihydrochloride)]
- Cholesterol-free media + simvastatin (0.04 μM) [1, 22]: 0.9719
- Complete Media [1, 23]: 1.018
- Difference [1, 24]: 0.05
- Cholesterol-free [2, 7]: 0.6562
- Complete [2, 8]: 1.363
- Difference [2, 18]: 0.71

Molecule: NC(=O)c1nc(F)c[nH]c1=O [Favipiravir]
- Cholesterol-free media + simvastatin (0.04 μM) [1, 25]: 1.347
- Complete Media ([1]; drug in complete media): 1.105
- Difference [1, 17]: −0.24
- Difference ([2]; Complete minus Cholesterol-free, >0 enhanced anti-cancer activity, about 0 neutral, <0 antagonist): −0.06
- Cholesterol-free [2, 7]: 1.059
- Complete [2, 8]: 0.9966

Molecule: Nc1nc(CC(=O)Nc2ccc(CCNC[C@H](O)c3ccccc3)cc2)cs1 [Mirabegron]
- Cholesterol-free media + simvastatin (0.04 μM) [1, 9]: 1.317
- Complete Media [1, 10]: 1.183
- Difference [1, 17]: −0.13
- Cholesterol-free [2, 20]: 1.131
- Complete ([2]; NCI-H292 cells, complete media): 0.7731
- Difference [2, 21]: −0.36

Molecule: Cc1cc(N2CCN([C@@H]3CN[C@H](C(=O)N4CCSC4)C3)CC2)n(-c2ccccc2)n1 [Teneligliptin (hydrobromide)]
- Cholesterol-free media + simvastatin (0.04 μM) [1, 15]: 1.564
- Complete Media [1, 16]: 1.115
- Difference [1, 12]: −0.45
- Difference [2, 6]: −0.56
- Cholesterol-free [2, 13]: 1.45
- Complete [2, 14]: 0.8858

Molecule: N#Cc1cc(-c2n[nH]c(-c3ccncc3)n2)ccn1 [Topiroxostat]
- Cholesterol-free media + simvastatin (0.04 μM) [1, 3]: 1.544
- Complete Media [1, 4]: 1.543
- Difference [1, 19]: 0.00
- Cholesterol-free [2, 7]: 0.764
- Complete [2, 8]: 1.603
- Difference [2, 18]: 0.84

Molecule: Thymopentin (acetate)
- Complete Media [1, 4]: 1.151
- Difference [1, 5]: 0.00
- Cholesterol-free [2, 7]: 0.9838
- Complete [2, 8]: 1.095
- Difference [2, 11]: 0.11

Molecule: CC[C@H]1OC(=O)[C@H](C)C(=O)[C@H](C)[C@@H](O[C@@H]2O[C@H](C)C[C@H](N(C)C)[C@H]2O)[C@](C)(OC)C[C@@H](C)C(=O)[C@H](C)[C@H]2N(CCCCn3cnc(-c4cccnc4)c3)C(=O)O[C@]12C [Telithromycin]
- Cholesterol-free media + simvastatin (0.04 μM) [1, 3]: 0.872
- Complete Media [1, 4]: 0.854
- Difference [1, 19]: −0.02
- Difference [2, 26]: −0.51
- Cholesterol-free [2, 13]: 1.316
- Complete [2, 14]: 0.8019

Molecule: CCCCN(CCCC)CC(O)c1cc(Cl)cc2c1-c1ccc(Cl)cc1/C2=C/c1ccc(Cl)cc1 (stereo not shown) [Lumefantrine]
- Cholesterol-free media + simvastatin (0.04 μM) [1, 22]: 0.8537
- Complete Media [1, 23]: 0.9184
- Difference [1, 24]: 0.06
- Cholesterol-free [2, 7]: 0.9552
- Difference [2, 18]: 0.22

Molecule: CC(C)NCC(O)COc1cccc2[nH]ccc12 (stereo not shown) [Pindolol]
- Cholesterol-free media + simvastatin (0.04 μM) [1, 25]: 1.032
- Complete Media ([1]; drug in complete media): 0.7777
- Difference [1, 17]: −0.25
- Cholesterol-free [2, 7]: 0.8852
- Complete [2, 8]: 0.973
- Difference [2, 18]: 0.09

Molecule: COc1ccc2cc3[n+](cc2c1OC)CCc1cc2c(cc1-3)OCO2.O.[Cl-] [Berberine (chloride hydrate)]
- Cholesterol-free media + simvastatin (0.04 μM) [1, 3]: 0.3813
- Complete Media [1, 4]: 0.3495
- Difference [1, 19]: −0.03
- Difference [2, 27]: −0.18
- Cholesterol-free [2, 28]: 0.263
- Complete [2, 29]: 0.07956

Molecule: CNCCCC12CCC(c3ccccc31)c1ccccc12 [Maprotiline (hydrochloride)]
- Cholesterol-free media + simvastatin (0.04 μM) [1, 15]: 1.215
- Complete Media [1, 16]: 0.924
- Difference [1, 17]: −0.29
- Cholesterol-free [2, 20]: 1.347
- Complete ([2]; NCI-H292 cells, complete media): 0.9995
- Difference [2, 21]: −0.35

Molecule: O=C(Cn1ccnc1[N+](=O)[O-])NCc1ccccc1 [Benznidazol]
- Cholesterol-free media + simvastatin (0.04 μM) [1, 15]: 2.104
- Complete Media [1, 16]: 1.636
- Difference [1, 17]: −0.47
- Cholesterol-free [2, 7]: 1.047
- Complete [2, 8]: 1.215
- Difference [2, 18]: 0.17

Molecule: CCN1CCC[C@H]1CNC(=O)c1cc(S(N)(=O)=O)ccc1OC [Levosulpiride]
- Cholesterol-free media + simvastatin (0.04 μM) [1, 9]: 0.9156
- Complete Media [1, 10]: 1.092
- Difference [1, 24]: 0.18
- Difference [2, 26]: −0.54
- Cholesterol-free [2, 13]: 1.287
- Complete [2, 14]: 0.7498

Molecule: O=C(O)CCCCC1CCSS1 (stereo not drawn) [α-Lipoic Acid]
- Cholesterol-free media + simvastatin (0.04 μM) [1, 9]: 1.116
- Complete Media [1, 10]: 1.004
- Difference [1, 17]: −0.11
- Difference [2, 27]: −0.15
- Cholesterol-free [2, 28]: 1.192
- Complete [2, 29]: 1.044

Molecule: N[C@@H](CO)C(=O)O [L-Serine]
- Cholesterol-free media + simvastatin (0.04 μM) [1, 25]: 1.125
- Complete Media ([1]; drug in complete media): 0.9461
- Difference [1, 12]: −0.18
- Cholesterol-free [2, 20]: 1.3
- Complete ([2]; NCI-H292 cells, complete media): 0.9649
- Difference [2, 11]: −0.33

Molecule: CN1c2c(nc(N)[nH]c2=O)NC[C@@H]1CNc1ccc(C(=O)N[C@@H](CCC(=O)O)C(=O)O)cc1 [Levomefolic acid]
- Cholesterol-free media + simvastatin (0.04 μM) [1, 3]: 0.9044
- Complete Media [1, 4]: 0.8568
- Difference [1, 19]: −0.05
- Cholesterol-free [2, 20]: 1.808
- Complete ([2]; NCI-H292 cells, complete media): 1.368
- Difference [2, 21]: −0.44
